Data from patent publication US20060223819A1, “Quinoline Derivatives as NK-3 Antagonists” (GlaxoSmithKline S.P.A. & Laboratoire, priority 2000, published 2006).
Where a name gives a salt, the structure may show the parent alone.

For `C[C@H](NC(=O)c1c(CN2CCN(CCO)C(=O)C2)c(-c2ccccc2)nc2ccccc12)C1CCCCC1` (as salt: hydrochloride) [Example 37, 3-[4-(2-Hydroxyethyl)-3-oxopiperazin-1-ylmethyl]-2-phenylquinoline-4-carboxylic acid ((S)-1-cyclohexyl-ethyl)-amide dihydrochloride], the melting point was 171 to 173 °C.
`C[C@H](NC(=O)c1c(CN2CCN(CC(Cc3ccccc3)C(=O)O)CC2)c(-c2ccccc2)nc2ccccc12)C1CCCCC1` (mixture of isomers) [Example 17, 2-Benzyl-3-{4-[4-((S)-1-cyclohexyl-ethylcarbamoyl)-2-phenyl-quinolin-3-ylmethyl]-piperazin-1-yl}-propionic acid] showed a melting point of 136 °C.
For `COc1ccc([C@H](C)NC(=O)c2c(CN3CCNCC3)c(-c3ccccc3)nc3ccccc23)cc1` [Example 2, 2-Phenyl-3-piperazin-1-ylmethyl-quinoline-4-carboxylic acid[(S)-1-(4-methoxy-phenyl)-ethyl]-amide], the melting point was 109 to 111 °C.
`COc1cccc([C@H](C)NC(=O)c2c(CN3CCNCC3)c(-c3ccccc3)nc3ccccc23)c1` [Example 3, 2-Phenyl-3-piperazin-1-ylmethyl-quinoline-4-carboxylic acid[(S)-1-(3-methoxy-phenyl)-ethyl]-amide] showed a melting point of 147 to 153 °C.
`C[C@H](NC(=O)c1c(CN2CCNCC2)c(-c2ccccc2)nc2ccccc12)c1cccc(O)c1` [Example 4, 2-Phenyl-3-piperazin-1-ylmethyl-quinoline-4-carboxylic acid [(S)-1-(3-hydroxy-phenyl)-ethyl]-amide] gave a melting point of 240 to 244 °C.
In the case of `C[C@@H](NC(=O)c1c(CN2CCNCC2)c(-c2ccccc2)nc2ccccc12)C1CCCCC1` [Example 5, 2-Phenyl-3-piperazin-1-ylmethyl-quinoline-4-carboxylic acid((R)-1-cyclohexyl-ethyl)-amide], the melting point is reported as 118 to 120 °C.
With `C[C@H](NC(=O)c1c(CN2CCNCC2)c(-c2ccccc2)nc2ccccc12)c1ccc(O)cc1` [Example 6, 2-Phenyl-3-piperazin-1-ylmethyl-quinoline-4-carboxylic acid [(S)-1-(4-hydroxy-phenyl)-ethyl]-amide] the melting point was 163 °C.
In the case of `C[C@H](NC(=O)c1c(CN2CCNCC2)c(-c2ccccc2)nc2cc3c(cc12)OCCO3)C1CCCCC1` [Example 9, 7-Phenyl-8-piperazin-1-ylmethyl-2,3-dihydro-[1,4]dioxino[2,3-g]quinoline-9-carboxylic acid ((S)-1-cyclohexyl-ethyl)-amide], the melting point is reported as 135 to 137 °C.
`COc1cc2nc(-c3ccccc3)c(CN3CCNCC3)c(C(=O)N[C@@H](C)C3CCCCC3)c2cc1OC` [Example 10, 6,7-Dimethoxy-2-phenyl-3-piperazin-1-ylmethyl-quinoline-4-carboxylic acid ((S)-1-cyclohexyl-ethyl)-amide] showed a melting point of 130 to 132 °C.
Molecule `C[C@H](NC(=O)c1c(CN2CCN(/C(=C/[N+](=O)[O-])N3CCCC3)CC2)c(-c2ccccc2)nc2ccccc12)c1ccccc1` [Example 12, 3-[4-(2-Nitro-1-pyrrolidin-1-yl-vinyl)-piperazin-1-ylmethyl]-2-phenyl-quinoline-4-carboxylic acid ((S)-1-phenyl-ethyl)-amide] has a melting point of 164 to 165 °C.
`CC(C)[C@H](NC(=O)c1c(CN2CCN(/C(=C/[N+](=O)[O-])N3CCCC3)CC2)c(-c2ccccc2)nc2ccccc12)c1ccccc1` [Example 13, 3-[4-(2-Nitro-1-pyrrolidin-1-yl-vinyl)-piperazin-1-ylmethyl]-2-phenyl-quinoline-4-carboxylic acid ((S)-2-methyl-1-phenyl-propyl)-amide] gave a melting point of 170 to 175 °C.
In the case of `CC(CN1CCN(Cc2c(-c3ccccc3)nc3ccccc3c2C(=O)N[C@@H](C)c2ccccc2)CC1)C(=O)O` (stereo partly drawn) [Example 14, 2-Methyl-3-{4-[2-phenyl-4-((S)-1-phenyl-ethylcarbamoyl)-quinolin-3-ylmethyl]-piperazin-1-yl}-propionic acid], the melting point is reported as 137 to 138 °C.
Molecule `CCOC(=O)C1CCCN(/C(=C\[N+](=O)[O-])N2CCN(Cc3c(-c4ccccc4)nc4ccccc4c3C(=O)N[C@@H](C)c3ccccc3)CC2)C1` (stereo partly drawn) [Example 15, 1-(2-Nitro-1-{4-[2-phenyl-4-((S)-1-phenyl-ethylcarbamoyl)-quinolin-3-ylmethyl]-piperazin-1-yl}-vinyl)-piperidine-3-carboxylic acid ethyl ester] has a melting point of 120 to 121 °C.
In the case of `CC(C)[C@H](NC(=O)c1c(CN2CCN(CC(C(=O)O)c3ccccc3)CC2)c(-c2ccccc2)nc2ccccc12)c1ccccc1` (stereo partly drawn) [Example 16, 3-{4-[4-((S)-2-Methyl-1-phenyl-propylcarbamoyl)-2-phenyl-quinolin-3-ylmethyl]-piperazin-1-yl}-2-phenyl-propionic acid], the melting point is reported as 156 to 158 °C.
Molecule `C[C@H](NC(=O)c1c(CN2CCN(CCC(=O)O)CC2)c(-c2ccccc2)nc2ccccc12)C1CCCCC1` [Example 18, 3-{4-[4-((S)-1-Cyclohexyl-ethylcarbamoyl)-2-phenyl-quinolin-3-ylmethyl]-piperazin-1-yl}-propionic acid] has a melting point of 192 to 195 °C.
In the case of `C[C@H](NC(=O)c1c(CN2CCN(CC(N)=O)CC2)c(-c2ccccc2)nc2ccccc12)C1CCCCC1` [Example 19, 3-(4-Carbamoylmethyl-piperazin-1-ylmethyl)-2-phenyl-quinoline-4-carboxylic acid ((S)-1-cyclohexyl-ethyl)-amide], the melting point is reported as 125 to 130 °C.
Work on `CCOC(=O)C(CN1CCN(Cc2c(-c3ccccc3)nc3ccccc3c2C(=O)N[C@@H](C)C2CCCCC2)CC1)c1ccccc1` (stereo partly drawn) [Example 20, 3-{4-[4-((S)-1-Cyclohexyl-ethylcarbamoyl)-2-phenyl-quinolin-3-ylmethyl]-piperazin-1-yl}-2-phenyl-propionic acid ethyl ester] yielded a melting point of 90 to 91 °C.
For `C[C@H](NC(=O)c1c(CN2CCN(CCS(C)(=O)=O)CC2)c(-c2ccccc2)nc2ccccc12)C1CCCCC1` [Example 21, 3-[4-(2-Methanesulfonyl-ethyl)-piperazin-1-ylmethyl]-2-phenyl-quinoline-4-carboxylic acid ((S)-1-cyclohexyl-ethyl)-amide], the melting point was 120 to 121 °C.
In the case of `C[C@H](NC(=O)c1c(CN2CCN(CC(C(=O)O)c3ccccc3)CC2)c(-c2ccccc2)nc2ccccc12)C1CCCCC1` (stereo partly drawn) [Example 22, 3-{4-[4-((S)-1-Cyclohexyl-ethylcarbamoyl)-2-phenyl-quinolin-3-ylmethyl]-piperazin-1-yl}-2-phenyl-propionic acid], the melting point is reported as 144 to 145 °C.
Molecule `C[C@H](NC(=O)c1c(CN2CCNCC2)c(-c2ccccc2)nc2ccc(F)cc12)C1CCCCC1` [Example 24, 6-Fluoro-2-phenyl-3-piperazin-1-ylmethylquinoline-4-carboxylic acid ((S)-1-cyclohexylethyl)-amide] has a melting point of 154 to 158 °C.
In the case of `C[C@H](NC(=O)c1c(CN2CC(=O)NC(=O)C2)c(-c2ccccc2)nc2ccccc12)C1CCCCC1` [Example 29, 3-(3,5-Dioxopiperazin-1-ylmethyl)-2-phenylquinoline-4-carboxylic acid ((S)-1-cyclohexylethyl)-amide], the melting point is reported as 124 °C.
With `C[C@H](NC(=O)c1c(CN2CCNCC2=O)c(-c2ccccc2)nc2ccccc12)C1CCCCC1` [Example 30, 3-(2-Oxopiperazin-1-ylmethyl)-2-phenylquinoline-4-carboxylic acid ((S)-1-cyclohexylethyl)-amide] the melting point was 212 °C.
In the case of `C[C@H](NC(=O)c1c(CN2CC(=O)NCC2=O)c(-c2ccccc2)nc2ccccc12)C1CCCCC1` [Example 31, 3-(2,5-Dioxo-piperazin-1-ylmethyl)-2-phenyl-quinoline-4-carboxylic acid ((S)1-cyclohexylethyl)-amide], the melting point is reported as 251 °C.
For `C[C@H](NC(=O)c1c(CN2CCNC(=O)C2)c(-c2ccccc2)nc2ccc(F)cc12)C1CCCCC1` [Example 32, 6-Fluoro-3-(3-oxo-piperazin-1-ylmethyl)-2-phenyl-quinoline-4-carboxylic acid ((S)-1-cyclohexyl-ethyl)-amide], the melting point was 230 °C.
Molecule `C[C@H](NC(=O)c1c(CN2CCN(Cc3ccccc3)C(=O)C2)c(-c2ccccc2)nc2ccccc12)C1CCCCC1` [Example 33, 3-(4-Benzyl-3-oxopiperazin-1-ylmethyl)-2-phenylquinoline-4-carboxylic acid ((S)-1-cyclohexylethyl)-amide] has a melting point of 181 °C.
Molecule `C[C@H](NC(=O)c1c(CN2CCNC(=O)C2)c(-c2ccccc2)nc2cc(F)ccc12)C1CCCCC1` [Example 35, 7-Fluoro-3-(3-oxopiperazin-1-ylmethyl)-2-phenylquinoline-4-carboxylic acid ((S)-1-cyclohexyl-ethyl)-amide] has a melting point of 163 to 165 °C.
Work on `CCCN1CCN(Cc2c(-c3ccccc3)nc3ccccc3c2C(=O)N[C@@H](C)C2CCCCC2)CC1=O` [Example 36, 3-(3-Oxo-4-propyl-piperazin-1-ylmethyl)-2-phenyl-quinoline-4-carboxylic acid ((S)-1-cyclohexyl-ethyl)-amide] yielded a melting point of 150 °C.
For `C[C@H](NC(=O)c1c(CN2CCNC(=O)C2)c(-c2ccccc2)nc2cc3c(cc12)OCCO3)C1CCCCC1` [Example 38, 8-(3-Oxo-piperazin-1-ylmethyl)-7-phenyl-2,3-dihydro-[1,4]dioxino[2,3-g]quinoline-9-carboxylic acid ((S)-1-cyclohexyl-ethyl)-amide], the melting point was 144 to 145 °C.
`C[C@H](NC(=O)c1c(CN2CCNC(=O)C2)c(-c2ccccc2)nc2c(F)cccc12)C1CCCCC1` [Example 39, 8-Fluoro-3-(3-oxo-piperazin-1-ylmethyl)-2-phenylquinoline-4-carboxylic acid ((S)-1-cyclohexyl-ethyl)-amide] gave a melting point of 165 °C.
`CC[C@H](NC(=O)c1c(CN2CCNC(=O)C2)c(-c2ccccc2)nc2ccccc12)c1ccccc1` [Example 40, 3-(3-Oxo-piperazin-1-ylmethyl)-2-phenyl-quinoline-4-carboxylic acid((S)-1-phenyl-propyl)-amide] showed a melting point of 160 °C.
For `C[C@H](NC(=O)c1c(CN2CCNC(=O)C2)c(-c2cccs2)nc2ccccc12)C1CCCCC1` [Example 41, 3-(3-Oxo-piperazin-1-ylmethyl)-2-thiophen-2-yl-quinoline-4-carboxylic acid ((S)-1-cyclohexylethyl)-amide], the melting point was 225 to 230 °C.
